Results from publication PMC10685318, “Trans-cyclosulfamidate mannose-configured cyclitol allows isoform-dependent inhibition of GH47 α-D-mannosidases through a bump–hole strategy” (Chemical Science, 2023).

Target: T1, MAN2B1 (Homo sapiens, UniProt O00754)
T1 construct: expressed in transfected cells
T1 sequence (O00754 50-1011): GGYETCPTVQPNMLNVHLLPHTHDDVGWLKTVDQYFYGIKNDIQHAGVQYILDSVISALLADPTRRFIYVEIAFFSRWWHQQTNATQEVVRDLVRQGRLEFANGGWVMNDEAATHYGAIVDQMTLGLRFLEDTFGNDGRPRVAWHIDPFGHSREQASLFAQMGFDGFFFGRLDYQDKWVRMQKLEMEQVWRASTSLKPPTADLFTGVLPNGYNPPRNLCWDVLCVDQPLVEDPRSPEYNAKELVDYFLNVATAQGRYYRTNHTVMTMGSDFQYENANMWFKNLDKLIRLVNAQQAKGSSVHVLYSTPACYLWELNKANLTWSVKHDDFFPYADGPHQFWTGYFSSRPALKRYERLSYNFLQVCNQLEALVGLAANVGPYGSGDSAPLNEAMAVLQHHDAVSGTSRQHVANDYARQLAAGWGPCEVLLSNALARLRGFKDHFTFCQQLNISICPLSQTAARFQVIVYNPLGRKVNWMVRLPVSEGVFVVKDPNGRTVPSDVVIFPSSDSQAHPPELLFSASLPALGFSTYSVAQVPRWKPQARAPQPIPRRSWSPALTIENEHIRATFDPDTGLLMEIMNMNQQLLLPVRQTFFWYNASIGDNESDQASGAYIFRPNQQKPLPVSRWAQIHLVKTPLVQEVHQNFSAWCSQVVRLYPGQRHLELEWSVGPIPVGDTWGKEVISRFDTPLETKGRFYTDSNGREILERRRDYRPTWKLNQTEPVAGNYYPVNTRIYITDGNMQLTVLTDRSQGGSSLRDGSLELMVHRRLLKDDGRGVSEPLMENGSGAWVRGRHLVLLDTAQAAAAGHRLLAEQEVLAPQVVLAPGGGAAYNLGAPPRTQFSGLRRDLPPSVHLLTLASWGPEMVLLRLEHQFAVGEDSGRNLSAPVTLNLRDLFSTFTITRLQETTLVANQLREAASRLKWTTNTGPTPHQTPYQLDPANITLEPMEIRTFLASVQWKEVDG
Experiment: 4-MU-α-man activity assay in overexpressed cell lysates
Type: biochemical
Text: Finally, selectivity versus a panel of related exo-mannosidases was investigated. We first tested inhibition against all five human GH38 retaining α-mannosidases in overexpressed cell lysates using 4-methylumbelliferyl-α-mannoside (4-MU-α-man): Golgi mannosidase II and IIx (MAN2A1 and MAN2A2), cytosolic MAN2C1 and lysosomal MAN2B1 and MAN2B2. This α-mannosidase family follows a different conformational itinerary than GH47: ^0S2 → B2,5 → ^1S5.[35] […] Of note, the presence of cobalt has been associated with conformational changes in the active site of some GH38 α-mannosidases, which might affect the binding interaction with inhibitors.[36] Nevertheless, additional research is required to explore which specific metal ion is present in the MAN2C1 active site in its in vivo state.
Trans-Cyclosulfamidate Cyclitols Males et al.
2.3 GH38 α-mannosidases and GH2 β-mannosidase inhibition studies
All chemicals were of analytical grade and purchased from Sigma-Aldrich unless stated otherwise.
Optimal stability of cell homogenates and enzyme working stocks was ensured by preparation and temporary storage on ice. Cell homogenates were prepared and used on the same day. Protein concentrations were quantified using the Pierce BCA Protein Assay Kit (ThermoFisher). Protein samples were measured in clear flat-bottom polystyrene 96 well microplates (Greiner Bio-One) using a EMax Plus Microplate Reader (Molecular Devices). Activity measurements of human GH38 α-mannosidases and bacterial β-mannosidase BtMan2A were performed in black flat-bottom polystyrene 96 wells microplates (Greiner Bio-One) and total fluorescence was measured using a Perkin Elmer LS-55 fluorescence spectrometer at wavelengths λex = 366 and λem = 445 nm, with the signal optimized for medium gain readings. The fluorescence values of each enzyme sample were corrected for the background signal of a blank sample containing no enzyme. In the case of IC50 determinations, values were normalized against a control sample containing enzyme without added inhibitor. For a single experiment, three separate curves were fitted from a technical triplicate by setting the inhibitor concentration in µM against the normalized response using GraphPad Prism 8.4.2 software. The Prism functions ‘[inhibitor] versus normalized response’ and ‘[inhibitor] versus normalized response -- variable slope’ were compared for each curve using the Akaike’s Information Criterion method to select the preferred model. Reported IC50 values are mean ± standard deviation from a biological […]
General cell culture protocol
HEK293T cells were grown to confluency at 37 °C under a 5% CO2 atmosphere in Dulbecco’s Modified Eagle’s Medium (DMEM) with a high glucose concentration (Capricorn Scientific, DMEM-HPXA) that was supplemented with 10% fetal calf serum, 0.1% (w/v) penicillin/streptomycin and 1% (v/v) Glutamax. Cells were passaged twice a week to new round polystyrene (PS) tissue culture dishes (Sarstedt) by detachment off the former culture plates by careful pipetting. To prepare cell pellets for activity measurements, plates were grown to confluency and harvested in phosphate buffered saline (PBS). After centrifugation at 1500 rpm for 5 min, the remaining PBS was aspirated and the cells were resuspended in fresh PBS. The concentration of the resulting suspension was then counted using a TC20 automated cell counter (BioRad). Aliquots were centrifuged at 2000 rpm for 5 min and the resulting cell pellets were stored at -80 °C until further use.
4-MU activity assay protocol for human GH38 α-mannosidases
HEK293T cells stably overexpressing human GH38 α-mannosidases MAN2A1, MAN2A2, MAN2B1, MAN2B2 and MAN2C1 were prepared as previously described[11] and were kindly donated by Dr. C. L.
Kuo. Homogenates were prepared by sonicating cell pellets (Sonics VibraCell, 5x1 s with 30 s interval at 20% amplitude) in 150 mM McIlvain buffer of pH 5.5 (MAN2A1, MAN2A2), pH 4.5 (MAN2B1, MAN2B2) or pH 6.7 (MAN2C1) containing either 2 mM ZnCl2 (MAN2A1, MAN2A2, MAN2B1, MAN2B2) […]

In the case of `O=S1(=O)N[C@@H]2[C@@H](O)[C@@H](O)[C@H](O)[C@@H](CO)[C@H]2O1` [compound 6, 1,6-trans-manno-cyclosulfamidate], the “activity when the buffer was enriched with CoCl2” value (CoCl2) is reported as “no activity” and the IC50 (Zn2+) is reported as over 1000 µM.
